Among the data in patent US6407094B1, “Glutamate receptor antagonists” (Hoffmann-la Roche Inc., priority 1999, dated 2002) are Ki and melting point values, retold here.

T1 sequence (P31421 19-872): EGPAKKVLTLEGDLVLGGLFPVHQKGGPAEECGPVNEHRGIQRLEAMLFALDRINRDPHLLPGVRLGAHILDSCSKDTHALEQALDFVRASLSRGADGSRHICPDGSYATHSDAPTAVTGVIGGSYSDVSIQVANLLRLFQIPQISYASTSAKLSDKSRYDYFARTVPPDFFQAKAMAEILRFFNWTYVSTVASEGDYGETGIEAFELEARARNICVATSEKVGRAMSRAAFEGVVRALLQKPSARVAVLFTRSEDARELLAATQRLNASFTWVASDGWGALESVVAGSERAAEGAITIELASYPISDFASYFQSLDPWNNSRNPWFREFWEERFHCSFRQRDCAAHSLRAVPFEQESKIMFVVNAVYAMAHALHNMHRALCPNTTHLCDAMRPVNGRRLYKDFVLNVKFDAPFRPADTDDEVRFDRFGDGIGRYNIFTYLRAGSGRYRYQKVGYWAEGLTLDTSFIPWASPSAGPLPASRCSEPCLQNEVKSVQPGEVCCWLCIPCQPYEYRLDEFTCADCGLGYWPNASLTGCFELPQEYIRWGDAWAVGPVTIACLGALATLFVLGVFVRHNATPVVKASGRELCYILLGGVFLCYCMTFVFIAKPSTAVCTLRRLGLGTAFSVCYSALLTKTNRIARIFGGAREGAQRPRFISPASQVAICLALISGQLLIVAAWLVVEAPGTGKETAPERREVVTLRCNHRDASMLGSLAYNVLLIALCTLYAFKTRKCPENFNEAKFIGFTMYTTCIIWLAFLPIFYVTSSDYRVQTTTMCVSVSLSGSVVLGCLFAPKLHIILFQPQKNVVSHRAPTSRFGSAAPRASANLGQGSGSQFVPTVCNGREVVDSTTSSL

One data set has as its target T1, rat mGlu2 receptor (Rattus norvegicus, UniProt P31421).
T1 construct: expressed in transfected cells; host or cells: CHO cells, stably transfected with pcD1mGR2 (pcDNA I-amp), G-418 selected; membranes used
The data set can be described thus: [3H]-LY354740 binding on mGlu2 transfected CHO cell membranes.
With `N#Cc1cccc(C2=Nc3cc(OCC4COC(=O)O4)c(C#Cc4ccccc4)cc3NC(=O)C2)c1` (racemic) [Example 28, [RS]-3-[4-Oxo-8-(2-oxo-[1,3]dioxolan-4-ylmethoxy)-7-phenylethynyl-4,5-dihydro-3H-benzo[b][1,4]diazepin-2-yl]-benzonitrile], the Ki was 35 nM. This lies in the double-digit nanomolar range.
On the same count and under the same terms, the result for `N#Cc1cccc(C2=Nc3cc(Cl)c(C#Cc4ccccc4)cc3NC(=O)C2)c1` [Example 3, 3-(8-Chloro-4-oxo-7-phenylethynyl-4,5-dihydro-3H-benzo[b][1,4]diazepin-2-yl)-benzonitrile] reads 28 nM; that for `N#Cc1cccc(C2=Nc3cc(Cl)c(-c4ccccc4)cc3NC(=O)C2)c1` [Example 7, 3-(8-Chloro-4-oxo-7-phenyl-4,5-dihydro-3H-benzo[b][1,4]diazepin-2-yl)-benzonitrile], 120 nM; that for `COC(=O)CSc1cc2c(cc1C#Cc1ccccc1)NC(=O)CC(c1cccc(C#N)c1)=N2` [Example 12, [4-(3-Cyano-phenyl)-2-oxo-8-phenylethynyl-2,3-dihydro-1H-benzo[b][1,4]diazepin-7-ylsulfanyl]-acetic acid methyl ester], 51 nM.
Same read-out and setting: in the case of `N#Cc1cccc(C2=Nc3cc(CC(N)=O)c(C#Cc4ccccc4)cc3NC(=O)C2)c1` [Example 17, 2-[4-(3-Cyano-phenyl)-2-oxo-8-phenylethynyl-2,3-dihydro-1H-benzo[b][1,4]diazepin-7-yl]-acetamide] it was 37 nM.
`COc1cc2c(cc1C#Cc1ccccc1)NC(=O)CC(c1cccc(C#N)c1)=N2` [Example 20, 3-(8-Methoxy-4-oxo-7-phenylethynyl-4,5-dihydro-3H-benzo[b][1,4]diazepin-2-yl)-benzonitrile] yielded an inhibition constant (Ki) of 46 nM.
On to `N#CCc1cc2c(cc1C#Cc1ccccc1)NC(=O)CC(c1cccc(C#N)c1)=N2` [Example 23, 3-(8-Cyanomethyl-4-oxo-7-phenylethynyl-4,5-dihydro-3H-benzo[b][1,4]diazepin-2-yl)-benzonitrile], for which the inhibition constant (Ki) amounted to 16 nM.

Tested on in the next data set: not given
Test: not given
For the molecule `N#Cc1cccc(C2=Nc3cc(OCC4COC(=O)O4)c(C#Cc4ccccc4)cc3NC(=O)C2)c1` (racemic) [Example 28, [RS]-3-[4-Oxo-8-(2-oxo-[1,3]dioxolan-4-ylmethoxy)-7-phenylethynyl-4,5-dihydro-3H-benzo[b][1,4]diazepin-2-yl]-benzonitrile], the melting point is 222 °C (dec.).
`N#Cc1cccc(C2=Nc3cc(Cl)c(-c4ccccc4)cc3NC(=O)C2)c1` [Example 7, 3-(8-Chloro-4-oxo-7-phenyl-4,5-dihydro-3H-benzo[b][1,4]diazepin-2-yl)-benzonitrile]: the melting point was 242 to 244 °C (dec.).
In the case of `COC(=O)CSc1cc2c(cc1C#Cc1ccccc1)NC(=O)CC(c1cccc(C#N)c1)=N2` [Example 12, [4-(3-Cyano-phenyl)-2-oxo-8-phenylethynyl-2,3-dihydro-1H-benzo[b][1,4]diazepin-7-ylsulfanyl]-acetic acid methyl ester], the melting point was 201 °C (dec.).
The same measure, in the same setting: the result for `N#Cc1cccc(C2=Nc3cc(CC(N)=O)c(C#Cc4ccccc4)cc3NC(=O)C2)c1` [Example 17, 2-[4-(3-Cyano-phenyl)-2-oxo-8-phenylethynyl-2,3-dihydro-1H-benzo[b][1,4]diazepin-7-yl]-acetamide] reads 250 °C (dec.); that for `COc1cc2c(cc1C#Cc1ccccc1)NC(=O)CC(c1cccc(C#N)c1)=N2` [Example 20, 3-(8-Methoxy-4-oxo-7-phenylethynyl-4,5-dihydro-3H-benzo[b][1,4]diazepin-2-yl)-benzonitrile], more than 250 °C.
For the molecule `N#CCc1cc2c(cc1C#Cc1ccccc1)NC(=O)CC(c1cccc(C#N)c1)=N2` [Example 23, 3-(8-Cyanomethyl-4-oxo-7-phenylethynyl-4,5-dihydro-3H-benzo[b][1,4]diazepin-2-yl)-benzonitrile], the melting point is 262 °C (dec.).
In the case of `Cc1cc2c(cc1-c1ccc(F)cc1)NC(=O)CC(c1cccc(-n3ccnc3)c1)=N2` [Example 53, 8-(4-Fluoro-phenyl)-4-(3-imidazol-1-yl-phenyl)-7-methyl-1,3-dihydro-benzo[b][1,4]diazepin-2-one], the melting point stood at 196 °C.
Molecule `O=C1CC(c2cccc(-n3ccnc3)c2)=Nc2cc(Cl)c(-c3ccc(F)cc3)cc2N1` [Example 56, 7-Chloro-8-(4-fluoro-phenyl)-4-(3-imidazol-1-yl-phenyl)-1,3-dihydro-benzo[b][1,4]diazepin-2-one] came in with a melting point of 209 to 211 °C.
The same measure, in the same setting: in the case of `COCCOc1cc2c(cc1-c1ccc(F)cc1)NC(=O)CC(c1cccc(-n3ccnc3)c1)=N2` [Example 57, 8-(4-Fluoro-phenyl)-4-(3-imidazol-1-yl-phenyl)-7-(2-methoxy-ethoxy)-1,3-dihydro-benzo[b][1,4]diazepin-2-one] it was 196 to 197 °C; in that of `O=C1CC(c2cccc(-n3ccnc3)c2)=Nc2cc(OCCO)c(-c3ccc(F)cc3)cc2N1` [Example 58, 8-(4-Fluoro-phenyl)-7-(2-hydroxy-ethoxy)-4-(3-imidazol-1-yl-phenyl)-1,3-dihydro-benzo[b][1,4]diazepin-2-one], 225 °C; in that of `O=C1CC(c2cccc(-n3ccnc3)c2)=Nc2cc(N3CCOC3=O)c(-c3ccc(F)cc3)cc2N1` [Example 59, 8-(4-Fluoro-phenyl)-4-(3-imidazol-1-yl-phenyl)-7-(2-oxo-oxazolidin-3-yl)-1,3-dihydro-benzo[b][1,4]diazepin-2-one], 230 °C.
Turning to `COc1cc2c(cc1-c1ccc(F)cc1C)NC(=O)CC(c1cccc(-n3ccnc3)c1)=N2` [Example 60, 8-(4-Fluoro-2-methyl-phenyl)-4-(3-imidazol-1-yl-phenyl)-7-methoxy-1,3-dihydro-benzo[b][1,4]diazepin-2-one], the melting point is 225 °C.
Turning to `O=C1CC(c2cccc(-n3ccnc3)c2)=Nc2cc(N3CC[C@@H](O)C3)c(-c3ccc(F)cc3)cc2N1` [Example 63, 8-(4-Fluoro-phenyl)-7-((R)-3-hydroxy-pyrrolidin-1-yl)-4-(3-imidazol-1-yl-phenyl)-1,3-dihydro-benzo[b][1,4]diazepin-2-one], the melting point was in the range of 155 to 158 °C.
On to `COc1cc2c(cc1-c1ccccc1F)NC(=O)CC(c1cccc(-n3ccnc3)c1)=N2` [Example 64, 8-(2-Fluoro-phenyl)-4-(3-imidazol-1-yl-phenyl)-7-methoxy-1,3-dihydro-benzo[b][1,4]diazepin-2-one], for which the melting point is 216 °C (dec.).
In turn, `N#Cc1cccc(C2=Nc3cc(O)c(-c4ccc(F)cc4)cc3NC(=O)C2)c1` [Example 65, 3-[7-(4-Fluoro-phenyl)-8-hydroxy-4-oxo-4,5-dihydro-3H-benzo[b][1,4]diazepin-2-yl]-benzonitrile] showed a melting point of more than 250 °C.
Take `N#Cc1cccc(C2=Nc3cc(O)c(-c4ccccc4F)cc3NC(=O)C2)c1` [Example 66, 3-[7-(2-Fluoro-phenyl)-8-hydroxy-4-oxo-4,5-dihydro-3H-benzo[b][1,4]diazepin-2-yl]-benzonitrile]: the melting point was more than 250 °C.
In turn, `COc1cc2c(cc1-c1ccccc1F)NC(=O)CC(c1cccc(C#N)c1)=N2` [Example 67, 3-[7-(2-Fluoro-phenyl)-8-methoxy-4-oxo-4,5-dihydro-3H-benzo[b][1,4]diazepin-2-yl]-benzonitrile] registered a melting point of 245 to 247 °C.
For `COc1cc2c(cc1-c1ccccc1F)NC(=O)CC(c1cccc(-n3cnnc3)c1)=N2` [Example 70, 8-(2-Fluoro-phenyl)-7-methoxy-4-(3-[1,2,4]triazol-4-yl-phenyl)-1,3-dihydro-benzo[b][1,4]diazepin-2-one], the melting point is 188 °C (dec.).
In turn, `COc1cc2c(cc1-c1ccccc1F)NC(=O)CC(c1cc(C#N)ccc1F)=N2` [Example 73, 4-Fluoro-3-[7-(2-fluoro-phenyl)-8-methoxy-4-oxo-4,5-dihydro-3H-benzo[b][1,4]diazepin-2-yl]-benzonitrile] registered a melting point of more than 250 °C.
In turn, `N#Cc1cc(C2=Nc3cc(O)c(-c4ccc(F)cc4)cc3NC(=O)C2)ccn1` [Example 74, 4-[7-(4-Fluoro-phenyl)-8-hydroxy-4-oxo-4,5-dihydro-3H-benzo[b][1,4]diazepin-2-yl]-pyridine-2-carbonitrile] displayed a melting point of 164 °C.
Regarding `N#Cc1cccc(C2=Nc3cc(N4CCC5(CC4)OCCO5)c(-c4ccccc4F)cc3NC(=O)C2)c1` [Example 76, 3-[8-(1,4-Dioxa-8-aza-spiro[4.5]dec-8-yl)-7-(2-fluoro-phenyl)-4-oxo-4,5-dihydro-3H-benzo[b][1,4]diazepin-2-yl]-benzonitrile], the melting point turned out to be 253 °C.
Molecule `O=C1CC(c2cccc(-n3ccnc3)c2)=Nc2cc(N3CCC4(CC3)OCCO4)c(-c3ccccc3F)cc2N1` [Example 77, 7-(1,4-Dioxa-8-aza-spiro[4.5]dec-8-yl)-8-(2-fluoro-phenyl)-4-(3-imidazol-1-yl-phenyl)-1,3-dihydro-benzo[b][1,4]diazepin-2-one] came in with a melting point of 225 °C.
In turn, `O=C1CCN(c2cc3c(cc2-c2ccccc2F)NC(=O)CC(c2cccc(-n4ccnc4)c2)=N3)CC1` [Example 78, 8-(2-Fluoro-phenyl)-4-(3-imidazol-1-yl-phenyl)-7-(4-oxo-piperidin-1-yl)-1,3-dihydro-benzo[b][1,4]diazepin-2-one] showed a melting point of 230 °C.
Regarding `N#Cc1cc(C2=Nc3cc(O)c(-c4ccccc4F)cc3NC(=O)C2)ccn1` [Example 80, 4-[7-(2-Fluoro-phenyl)-8-hydroxy-4-oxo-4,5-dihydro-3H-benzo[b][1,4]diazepin-2-yl]-pyridine-2-carbonitrile], the melting point was more than 250 °C.
In turn, `COc1cc2c(cc1-c1cc(F)ccc1F)NC(=O)CC(c1cccc(C#N)c1)=N2` [Example 82, 3-[7-(2,5-Difluoro-phenyl)-8-methoxy-4-oxo-4,5-dihydro-3H-benzo[b][1,4]diazepin-2-yl]-benzonitrile] displayed a melting point of 251 °C.
Same read-out and setting: in the case of `N#Cc1ccsc1C1=CC(=O)Nc2cc(-c3ccccc3F)c(O)cc2N1` [Example 84, 2-[7-(2-Fluoro-phenyl)-8-hydroxy-4-oxo-4,5-dihydro-1H-benzo[b][1,4]diazepin-2yl]-thiophene-3-carbonitrile] it was 242 °C; in that of `O=C1CC(c2cccc(-n3ccnn3)c2)=Nc2cc(O)c(-c3ccc(F)cc3)cc2N1` [Example 86, 8-(4-Fluoro-phenyl)-7-hydroxy-4-(3-[1,2,3]triazol-1-yl-phenyl)-1,3-dihydro-benzo[b][1,4]diazepin-2-one], more than 250 °C; in that of `COCCOc1cc2c(cc1-c1ccccc1F)NC(=O)CC(c1cccc(C#N)c1)=N2` [Example 87, 3-[7-(2-Fluoro-phenyl)-8-(2-methoxy-ethoxy)-4-oxo-4,5-dihydro-3H-benzo[b][1,4]diazepin-2-yl]-benzonitrile], 211 to 213 °C.
On the same count and under the same terms, in the case of `N#Cc1cccc(C2=Nc3cc(CO)c(-c4ccccc4F)cc3NC(=O)C2)c1` [Example 88, 3-[7-(2-Fluoro-phenyl)-8-hydroxymethyl-4-oxo-4,5-dihydro-3H-benzo[b][1,4]diazepin-2-yl]-benzonitrile] it was 90 to 91 °C; in that of `O=C1CC(c2cccc(-n3ccnn3)c2)=Nc2cc(O)c(C#Cc3ccc(F)cc3)cc2N1` [Example 92, 8-(4-Fluoro-phenylethynyl)-7-hydroxy-4-(3-[1,2,3]triazol-1-yl-phenyl)-1,3-dihydro-benzo[b][1,4]diazepin-2-one], 243 °C.
For the molecule `COCCOc1cc2c(cc1C#Cc1ccccc1)NC(=O)CC(c1cccc(C(N)=O)c1)=N2` [Example 95, 3-[8-(2-Methoxy-ethoxy)-4-oxo-7-phenylethynyl-4,5-dihydro-3H-benzo[b][1,4]diazepin 2-yl]-benzamide], the melting point is 227 to 230 °C (dec.).

For orientation: Ki means a measure of affinity in units of concentration, obtained from inhibition or displacement. Lower therefore signals a stronger hold on the target. Usually melting point stands for the temperature of the solid-liquid transition.
